# Test system: E. coli
# Assay: Test Example 1: inducing E. coli CGC with N-acetyl-D-glucosamine and antibiotics in different ratios (K-B method, microscopy)
# Assay type: cell-based
compound,measurement,setting,value
"CC(=O)N[C@@H]1[C@@H](O)[C@H](O)[C@@H](CO)O[C@H]1O [Compound (I), N-acetyl-D-glucosamine]",CGC formation,"Compound (I) 150 mg, macrolide (spiramycin) 500 mg","− (if cell length was not greater than 50 μm and cell number was within the range from 0 to 4 in each visual field, it was deemed as CGC negative and was marked with “−”)"
same,CGC formation,"Compound (I) 150 mg, macrolide (spiramycin) 700 mg","− (if cell length was not greater than 50 μm and cell number was within the range from 0 to 4 in each visual field, it was deemed as CGC negative and was marked with “−”)"
same,CGC formation,"Compound (I) 150 mg, macrolide (spiramycin) 900 mg","− (if cell length was not greater than 50 μm and cell number was within the range from 0 to 4 in each visual field, it was deemed as CGC negative and was marked with “−”)"
same,CGC formation,"Compound (I) 150 mg, macrolide (spiramycin) 1100 mg","+ (If cell length was more than 50 μm and cell number was more than 5 in each visual field, it was deemed as CGC positive and was marked with “+”)"
same,CGC formation,"Compound (I) 150 mg, macrolide (spiramycin) 1300 mg","+ (If cell length was more than 50 μm and cell number was more than 5 in each visual field, it was deemed as CGC positive and was marked with “+”)"
same,CGC formation,"Compound (I) 150 mg, macrolide (spiramycin) 1500 mg","+ (If cell length was more than 50 μm and cell number was more than 5 in each visual field, it was deemed as CGC positive and was marked with “+”)"
same,CGC formation,"Compound (I) 150 mg, quinoline (ciprofloxacin, norfloxacin) 150 mg","− (if cell length was not greater than 50 μm and cell number was within the range from 0 to 4 in each visual field, it was deemed as CGC negative and was marked with “−”)"
same,CGC formation,"Compound (I) 150 mg, quinoline (ciprofloxacin, norfloxacin) 200 mg","− (if cell length was not greater than 50 μm and cell number was within the range from 0 to 4 in each visual field, it was deemed as CGC negative and was marked with “−”)"
same,CGC formation,"Compound (I) 200 mg, aminoglycoside (kanamycin, gentamycin) 50 mg","− (if cell length was not greater than 50 μm and cell number was within the range from 0 to 4 in each visual field, it was deemed as CGC negative and was marked with “−”)"
same,CGC formation,"Compound (I) 200 mg, aminoglycoside (kanamycin, gentamycin) 100 mg","− (if cell length was not greater than 50 μm and cell number was within the range from 0 to 4 in each visual field, it was deemed as CGC negative and was marked with “−”)"
same,CGC formation,"Compound (I) 200 mg, aminoglycoside (kanamycin, gentamycin) 150 mg","− (if cell length was not greater than 50 μm and cell number was within the range from 0 to 4 in each visual field, it was deemed as CGC negative and was marked with “−”)"
same,CGC formation,"Compound (I) 200 mg, aminoglycoside (kanamycin, gentamycin) 200 mg","− (if cell length was not greater than 50 μm and cell number was within the range from 0 to 4 in each visual field, it was deemed as CGC negative and was marked with “−”)"
same,CGC formation,"Compound (I) 200 mg, aminoglycoside (kanamycin, gentamycin) 300 mg","− (if cell length was not greater than 50 μm and cell number was within the range from 0 to 4 in each visual field, it was deemed as CGC negative and was marked with “−”)"
same,CGC formation,"Compound (I) 200 mg, aminoglycoside (kanamycin, gentamycin) 400 mg","+ (If cell length was more than 50 μm and cell number was more than 5 in each visual field, it was deemed as CGC positive and was marked with “+”)"
same,CGC formation,"Compound (I) 200 mg, aminoglycoside (kanamycin, gentamycin) 500 mg","+ (If cell length was more than 50 μm and cell number was more than 5 in each visual field, it was deemed as CGC positive and was marked with “+”)"
same,CGC formation,"Compound (I) 200 mg, macrolide (spiramycin) 300 mg","− (if cell length was not greater than 50 μm and cell number was within the range from 0 to 4 in each visual field, it was deemed as CGC negative and was marked with “−”)"
same,CGC formation,"Compound (I) 200 mg, macrolide (spiramycin) 500 mg","− (if cell length was not greater than 50 μm and cell number was within the range from 0 to 4 in each visual field, it was deemed as CGC negative and was marked with “−”)"
same,CGC formation,"Compound (I) 200 mg, macrolide (spiramycin) 700 mg","− (if cell length was not greater than 50 μm and cell number was within the range from 0 to 4 in each visual field, it was deemed as CGC negative and was marked with “−”)"
same,CGC formation,"Compound (I) 200 mg, macrolide (spiramycin) 900 mg","− (if cell length was not greater than 50 μm and cell number was within the range from 0 to 4 in each visual field, it was deemed as CGC negative and was marked with “−”)"
same,CGC formation,"Compound (I) 200 mg, macrolide (spiramycin) 1100 mg","− (if cell length was not greater than 50 μm and cell number was within the range from 0 to 4 in each visual field, it was deemed as CGC negative and was marked with “−”)"
same,CGC formation,"Compound (I) 200 mg, macrolide (spiramycin) 1300 mg","+ (If cell length was more than 50 μm and cell number was more than 5 in each visual field, it was deemed as CGC positive and was marked with “+”)"
same,CGC formation,"Compound (I) 200 mg, macrolide (spiramycin) 1500 mg","+ (If cell length was more than 50 μm and cell number was more than 5 in each visual field, it was deemed as CGC positive and was marked with “+”)"
same,CGC formation,"Compound (I) 250 mg, aminoglycoside (kanamycin, gentamycin) 50 mg","− (if cell length was not greater than 50 μm and cell number was within the range from 0 to 4 in each visual field, it was deemed as CGC negative and was marked with “−”)"
same,CGC formation,"Compound (I) 250 mg, aminoglycoside (kanamycin, gentamycin) 100 mg","− (if cell length was not greater than 50 μm and cell number was within the range from 0 to 4 in each visual field, it was deemed as CGC negative and was marked with “−”)"
same,CGC formation,"Compound (I) 250 mg, aminoglycoside (kanamycin, gentamycin) 150 mg","− (if cell length was not greater than 50 μm and cell number was within the range from 0 to 4 in each visual field, it was deemed as CGC negative and was marked with “−”)"
same,CGC formation,"Compound (I) 250 mg, aminoglycoside (kanamycin, gentamycin) 200 mg","− (if cell length was not greater than 50 μm and cell number was within the range from 0 to 4 in each visual field, it was deemed as CGC negative and was marked with “−”)"
same,CGC formation,"Compound (I) 250 mg, aminoglycoside (kanamycin, gentamycin) 300 mg","− (if cell length was not greater than 50 μm and cell number was within the range from 0 to 4 in each visual field, it was deemed as CGC negative and was marked with “−”)"
same,CGC formation,"Compound (I) 250 mg, aminoglycoside (kanamycin, gentamycin) 400 mg","− (if cell length was not greater than 50 μm and cell number was within the range from 0 to 4 in each visual field, it was deemed as CGC negative and was marked with “−”)"
same,CGC formation,"Compound (I) 250 mg, aminoglycoside (kanamycin, gentamycin) 500 mg","+ (If cell length was more than 50 μm and cell number was more than 5 in each visual field, it was deemed as CGC positive and was marked with “+”)"
same,CGC formation,"Compound (I) 250 mg, macrolide (spiramycin) 300 mg","− (if cell length was not greater than 50 μm and cell number was within the range from 0 to 4 in each visual field, it was deemed as CGC negative and was marked with “−”)"
same,CGC formation,"Compound (I) 250 mg, macrolide (spiramycin) 500 mg","− (if cell length was not greater than 50 μm and cell number was within the range from 0 to 4 in each visual field, it was deemed as CGC negative and was marked with “−”)"
same,CGC formation,"Compound (I) 250 mg, macrolide (spiramycin) 700 mg","− (if cell length was not greater than 50 μm and cell number was within the range from 0 to 4 in each visual field, it was deemed as CGC negative and was marked with “−”)"
same,CGC formation,"Compound (I) 250 mg, macrolide (spiramycin) 900 mg","− (if cell length was not greater than 50 μm and cell number was within the range from 0 to 4 in each visual field, it was deemed as CGC negative and was marked with “−”)"
same,CGC formation,"Compound (I) 250 mg, macrolide (spiramycin) 1100 mg","− (if cell length was not greater than 50 μm and cell number was within the range from 0 to 4 in each visual field, it was deemed as CGC negative and was marked with “−”)"
same,CGC formation,"Compound (I) 250 mg, macrolide (spiramycin) 1300 mg","− (if cell length was not greater than 50 μm and cell number was within the range from 0 to 4 in each visual field, it was deemed as CGC negative and was marked with “−”)"
same,CGC formation,"Compound (I) 250 mg, macrolide (spiramycin) 1500 mg","+ (If cell length was more than 50 μm and cell number was more than 5 in each visual field, it was deemed as CGC positive and was marked with “+”)"
same,CGC formation,"Compound (I) 300 mg, aminoglycoside (kanamycin, gentamycin) 50 mg","− (if cell length was not greater than 50 μm and cell number was within the range from 0 to 4 in each visual field, it was deemed as CGC negative and was marked with “−”)"
same,CGC formation,"Compound (I) 300 mg, aminoglycoside (kanamycin, gentamycin) 100 mg","− (if cell length was not greater than 50 μm and cell number was within the range from 0 to 4 in each visual field, it was deemed as CGC negative and was marked with “−”)"
same,CGC formation,"Compound (I) 300 mg, aminoglycoside (kanamycin, gentamycin) 150 mg","− (if cell length was not greater than 50 μm and cell number was within the range from 0 to 4 in each visual field, it was deemed as CGC negative and was marked with “−”)"
same,CGC formation,"Compound (I) 300 mg, aminoglycoside (kanamycin, gentamycin) 200 mg","− (if cell length was not greater than 50 μm and cell number was within the range from 0 to 4 in each visual field, it was deemed as CGC negative and was marked with “−”)"
same,CGC formation,"Compound (I) 300 mg, aminoglycoside (kanamycin, gentamycin) 300 mg","− (if cell length was not greater than 50 μm and cell number was within the range from 0 to 4 in each visual field, it was deemed as CGC negative and was marked with “−”)"
same,CGC formation,"Compound (I) 300 mg, aminoglycoside (kanamycin, gentamycin) 400 mg","− (if cell length was not greater than 50 μm and cell number was within the range from 0 to 4 in each visual field, it was deemed as CGC negative and was marked with “−”)"
same,CGC formation,"Compound (I) 300 mg, aminoglycoside (kanamycin, gentamycin) 500 mg","− (if cell length was not greater than 50 μm and cell number was within the range from 0 to 4 in each visual field, it was deemed as CGC negative and was marked with “−”)"
same,CGC formation,"Compound (I) 300 mg, macrolide (spiramycin) 300 mg","− (if cell length was not greater than 50 μm and cell number was within the range from 0 to 4 in each visual field, it was deemed as CGC negative and was marked with “−”)"
same,CGC formation,"Compound (I) 300 mg, macrolide (spiramycin) 500 mg","− (if cell length was not greater than 50 μm and cell number was within the range from 0 to 4 in each visual field, it was deemed as CGC negative and was marked with “−”)"
same,CGC formation,"Compound (I) 300 mg, macrolide (spiramycin) 700 mg","− (if cell length was not greater than 50 μm and cell number was within the range from 0 to 4 in each visual field, it was deemed as CGC negative and was marked with “−”)"
same,CGC formation,"Compound (I) 300 mg, macrolide (spiramycin) 900 mg","− (if cell length was not greater than 50 μm and cell number was within the range from 0 to 4 in each visual field, it was deemed as CGC negative and was marked with “−”)"
same,CGC formation,"Compound (I) 300 mg, macrolide (spiramycin) 1100 mg","− (if cell length was not greater than 50 μm and cell number was within the range from 0 to 4 in each visual field, it was deemed as CGC negative and was marked with “−”)"
same,CGC formation,"Compound (I) 300 mg, macrolide (spiramycin) 1300 mg","− (if cell length was not greater than 50 μm and cell number was within the range from 0 to 4 in each visual field, it was deemed as CGC negative and was marked with “−”)"
same,CGC formation,"Compound (I) 300 mg, macrolide (spiramycin) 1500 mg","− (if cell length was not greater than 50 μm and cell number was within the range from 0 to 4 in each visual field, it was deemed as CGC negative and was marked with “−”)"
